Assay results from the supplement of paper PMC7394473.

Columns and labels:
Conditions in all cases: 72 h
[1] = test system: U2OS; experiment: drug GRADE (percent of response due to cell death) (% (0-100)); higher = more death-driven response
Procedure: (§1)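 U2OS cells treated with full dose titrations of drug; live and dead cells counted by STACK microscopy (mKate2 nuclei, SYTOX Green) at 72 h, biological triplicates. GR and FV dose responses were fitted with 4-parameter logistic models (GR lower bound -1). GRADE (0-100) is the rescaled angle of a linear fit of FV versus GR at doses with GR >= 0, giving the percentage of the response due to cell death.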

[2] = test system: U2OS; experiment: FV IC50 (concentration giving fractional viability 0.5); higher = less potent killing
Procedure: as §1

[3] = test system: U2OS; experiment: GRmin (fitted minimal GR value at highest effect) (GR value (dimensionless)); higher = less efficacious
Procedure: as §1

[4] = test system: U2OS; experiment: fractional viability (live cells / total cells); higher = less cell death
Procedure: (§2)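 U2OS::Nuc-mKate2 cells seeded in 96-well plates and treated with eight- to ten-point half-log or log dilutions of drug in the presence of 50 nM SYTOX Green. Live (mKate2+) and dead (SYTOX+) cells were counted by IncuCyte STACK live-cell microscopy at 72 h; biological triplicates. GR is the normalised growth-rate inhibition value (Hafner 2016; 1 = untreated growth, <0 = population shrinking). FV is live/(live+dead) cells, not normalised.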

[5] = test system: U2OS; experiment: GR50 (concentration giving GR = 0.5)
Procedure: as §1

[6] = test system: U2OS; experiment: normalized growth rate inhibition value (GR) relative to untreated cells (GR value (dimensionless, 1 = untreated growth)); higher = less growth inhibition
Procedure: as §2

Nc1ccccc1NC(=O)c1ccc(CNC(=O)OCc2cccnc2)cc1 [Entinostat]
drug GRADE [1]: 42.5 | FV IC50 [2]: 5.8 µM | GRmin [3]: -0.906 | fractional viability ([4]; 0.01 µM): 0.979 | fractional viability ([4]; 0.0316 µM): 0.97 | fractional viability ([4]; 0.1 µM): 0.973 | fractional viability ([4]; 0.316 µM): 0.964 | fractional viability ([4]; 1 µM): 0.933 | fractional viability ([4]; 3.16 µM): 0.814 | fractional viability ([4]; 10 µM): 0.201 | fractional viability ([4]; 31.6 µM): 0.0216 | GR50 [5]: 2.84 µM | normalized growth rate inhibition value ([6]; 0.01 µM): 0.972 | normalized growth rate inhibition value ([6]; 0.0316 µM): 0.969 | normalized growth rate inhibition value ([6]; 0.1 µM): 0.929 | normalized growth rate inhibition value ([6]; 0.316 µM): 0.883 | normalized growth rate inhibition value ([6]; 1 µM): 0.741 | normalized growth rate inhibition value ([6]; 3.16 µM): 0.504 | normalized growth rate inhibition value ([6]; 10 µM): -0.304 | normalized growth rate inhibition value ([6]; 31.6 µM): -0.726

CC(C)Oc1ccc(-c2ccccc2)cc1-n1c(CN2CCN(C(=O)COc3ccc(Cl)cc3)CC2)nc2ccccc2c1=O [Erastin 2]
drug GRADE [1]: 24.1 | FV IC50 [2]: 0.659 µM | GRmin [3]: -0.774 | fractional viability ([4]; 0.01 µM): 0.97 | fractional viability ([4]; 0.0316 µM): 0.973 | fractional viability ([4]; 0.1 µM): 0.952 | fractional viability ([4]; 0.316 µM): 0.886 | fractional viability ([4]; 1 µM): 0.233 | fractional viability ([4]; 3.16 µM): 0.0768 | fractional viability ([4]; 10 µM): 0.0609 | fractional viability ([4]; 31.6 µM): 0.0186 | GR50 [5]: 0.231 µM | normalized growth rate inhibition value ([6]; 0.01 µM): 0.949 | normalized growth rate inhibition value ([6]; 0.0316 µM): 0.863 | normalized growth rate inhibition value ([6]; 0.1 µM): 0.703 | normalized growth rate inhibition value ([6]; 0.316 µM): 0.419 | normalized growth rate inhibition value ([6]; 1 µM): -0.133 | normalized growth rate inhibition value ([6]; 3.16 µM): -0.515 | normalized growth rate inhibition value ([6]; 10 µM): -0.627 | normalized growth rate inhibition value ([6]; 31.6 µM): -0.776

COC(=O)Nc1nc2cc(C(=O)c3ccc(F)cc3)ccc2[nH]1 [Flubendazole]
drug GRADE [1]: 61.2 | FV IC50 [2]: 10.7 µM | GRmin [3]: -0.0291 | fractional viability ([4]; 0.01 µM): 0.981 | fractional viability ([4]; 0.0316 µM): 0.978 | fractional viability ([4]; 0.1 µM): 0.971 | fractional viability ([4]; 0.316 µM): 0.95 | fractional viability ([4]; 1 µM): 0.766 | fractional viability ([4]; 3.16 µM): 0.595 | fractional viability ([4]; 10 µM): 0.516 | fractional viability ([4]; 31.6 µM): 0.468 | GR50 [5]: 0.566 µM | normalized growth rate inhibition value ([6]; 0.01 µM): 0.993 | normalized growth rate inhibition value ([6]; 0.0316 µM): 1 | normalized growth rate inhibition value ([6]; 0.1 µM): 0.892 | normalized growth rate inhibition value ([6]; 0.316 µM): 0.706 | normalized growth rate inhibition value ([6]; 1 µM): 0.286 | normalized growth rate inhibition value ([6]; 3.16 µM): 0.11 | normalized growth rate inhibition value ([6]; 10 µM): -0.01 | normalized growth rate inhibition value ([6]; 31.6 µM): -0.0371

COc1cc2c(Oc3ccc(NC(=O)C4(C(=O)Nc5ccc(F)cc5)CC4)cc3F)ccnc2cc1OCCCN1CCOCC1 [Foretinib]
drug GRADE [1]: 39.7 | FV IC50 [2]: 0.864 µM | GRmin [3]: -0.837 | fractional viability ([4]; 0.01 µM): 0.966 | fractional viability ([4]; 0.0316 µM): 0.963 | fractional viability ([4]; 0.1 µM): 0.941 | fractional viability ([4]; 0.316 µM): 0.689 | fractional viability ([4]; 1 µM): 0.553 | fractional viability ([4]; 3.16 µM): 0.0154 | fractional viability ([4]; 10 µM): 0 | fractional viability ([4]; 31.6 µM): 0.0267 | GR50 [5]: 0.138 µM | normalized growth rate inhibition value ([6]; 0.01 µM): 0.909 | normalized growth rate inhibition value ([6]; 0.0316 µM): 0.791 | normalized growth rate inhibition value ([6]; 0.1 µM): 0.766 | normalized growth rate inhibition value ([6]; 0.316 µM): -0.079 | normalized growth rate inhibition value ([6]; 1 µM): -0.199 | normalized growth rate inhibition value ([6]; 3.16 µM): -0.831 | normalized growth rate inhibition value ([6]; 10 µM): -0.93 | normalized growth rate inhibition value ([6]; 31.6 µM): -0.682

CCNC(=O)c1noc(-c2cc(C(C)C)c(O)cc2O)c1-c1ccc(CN2CCOCC2)cc1 [Luminespib]
drug GRADE [1]: 17.6 | FV IC50 [2]: 0.0186 µM | GRmin [3]: -0.319 | fractional viability ([4]; 0.000100578 µM): 0.99 | fractional viability ([4]; 0.000317827 µM): 0.99 | fractional viability ([4]; 0.00100433 µM): 0.989 | fractional viability ([4]; 0.00317369 µM): 0.983 | fractional viability ([4]; 0.0100289 µM): 0.844 | fractional viability ([4]; 0.0316912 µM): 0.419 | fractional viability ([4]; 0.100144 µM): 0.436 | fractional viability ([4]; 0.316456 µM): 0.464 | fractional viability ([4]; 1 µM): 0.442 | GR50 [5]: 0.00564 µM | normalized growth rate inhibition value ([6]; 0.000100578 µM): 0.869 | normalized growth rate inhibition value ([6]; 0.000317827 µM): 0.878 | normalized growth rate inhibition value ([6]; 0.00100433 µM): 0.876 | normalized growth rate inhibition value ([6]; 0.00317369 µM): 0.809 | normalized growth rate inhibition value ([6]; 0.0100289 µM): -0.00384 | normalized growth rate inhibition value ([6]; 0.0316912 µM): -0.331 | normalized growth rate inhibition value ([6]; 0.100144 µM): -0.365 | normalized growth rate inhibition value ([6]; 0.316456 µM): -0.239 | normalized growth rate inhibition value ([6]; 1 µM): -0.331

CC(C)C[C@@H](C=O)NC(=O)[C@H](CC(C)C)NC(=O)[C@H](CC(C)C)NC(=O)OCc1ccccc1 [MG-132]
drug GRADE [1]: 13.5 | FV IC50 [2]: 2.24 µM | GRmin [3]: -0.949 | fractional viability ([4]; 0.01 µM): 0.973 | fractional viability ([4]; 0.0316 µM): 0.977 | fractional viability ([4]; 0.1 µM): 0.979 | fractional viability ([4]; 0.316 µM): 0.974 | fractional viability ([4]; 1 µM): 0.929 | fractional viability ([4]; 3.16 µM): 0.226 | fractional viability ([4]; 10 µM): 0.00177 | fractional viability ([4]; 31.6 µM): 0 | GR50 [5]: 1.03 µM | normalized growth rate inhibition value ([6]; 0.01 µM): 1.02 | normalized growth rate inhibition value ([6]; 0.0316 µM): 1.01 | normalized growth rate inhibition value ([6]; 0.1 µM): 0.929 | normalized growth rate inhibition value ([6]; 0.316 µM): 0.9 | normalized growth rate inhibition value ([6]; 1 µM): 0.524 | normalized growth rate inhibition value ([6]; 3.16 µM): -0.442 | normalized growth rate inhibition value ([6]; 10 µM): -0.885 | normalized growth rate inhibition value ([6]; 31.6 µM): -0.93

C=CCn1c(=O)c2cnc(Nc3ccc(N4CCN(C)CC4)cc3)nc2n1-c1cccc(C(C)(C)O)n1 [MK1775]
drug GRADE [1]: 40.7 | FV IC50 [2]: 0.584 µM | GRmin [3]: -0.689 | fractional viability ([4]; 0.01 µM): 0.978 | fractional viability ([4]; 0.0316 µM): 0.977 | fractional viability ([4]; 0.1 µM): 0.948 | fractional viability ([4]; 0.316 µM): 0.725 | fractional viability ([4]; 1 µM): 0.294 | fractional viability ([4]; 3.16 µM): 0.125 | fractional viability ([4]; 10 µM): 0.0517 | fractional viability ([4]; 31.6 µM): 0.0225 | GR50 [5]: 0.156 µM | normalized growth rate inhibition value ([6]; 0.01 µM): 1.15 | normalized growth rate inhibition value ([6]; 0.0316 µM): 1.03 | normalized growth rate inhibition value ([6]; 0.1 µM): 0.664 | normalized growth rate inhibition value ([6]; 0.316 µM): 0.061 | normalized growth rate inhibition value ([6]; 1 µM): -0.346 | normalized growth rate inhibition value ([6]; 3.16 µM): -0.56 | normalized growth rate inhibition value ([6]; 10 µM): -0.681 | normalized growth rate inhibition value ([6]; 31.6 µM): -0.762

CCOc1cc2ncc(C#N)c(Nc3ccc(OCc4ccccn4)c(Cl)c3)c2cc1NC(=O)/C=C/CN(C)C [Neratinib]
drug GRADE [1]: 20 | FV IC50 [2]: 1.97 µM | fractional viability ([4]; 0.000317827 µM): 0.985 | fractional viability ([4]; 0.00100433 µM): 0.987 | fractional viability ([4]; 0.00317369 µM): 0.985 | fractional viability ([4]; 0.0100289 µM): 0.986 | fractional viability ([4]; 0.0316912 µM): 0.984 | fractional viability ([4]; 0.100144 µM): 0.968 | fractional viability ([4]; 0.316456 µM): 0.933 | fractional viability ([4]; 1 µM): 0.879 | fractional viability ([4]; 3.16 µM): 0.189 | GR50 [5]: 0.346 µM | normalized growth rate inhibition value ([6]; 0.000317827 µM): 0.803 | normalized growth rate inhibition value ([6]; 0.00100433 µM): 0.812 | normalized growth rate inhibition value ([6]; 0.00317369 µM): 0.867 | normalized growth rate inhibition value ([6]; 0.0100289 µM): 0.776 | normalized growth rate inhibition value ([6]; 0.0316912 µM): 0.727 | normalized growth rate inhibition value ([6]; 0.100144 µM): 0.638 | normalized growth rate inhibition value ([6]; 0.316456 µM): 0.457 | normalized growth rate inhibition value ([6]; 1 µM): 0.255 | normalized growth rate inhibition value ([6]; 3.16 µM): -0.534
